According to US12435046B2, “Alkynyl quinazoline compounds” (Black Diamond Therapeutics, Inc., priority 2019, dated 2025):

Key:
[1] = biological target: T1, HER2 S310F (Homo sapiens, UniProt P04626, S310F); experiment: BaF3 cell proliferation assay (CellTiterGlo), HER2 S310F; type: cell-based; settings: Table A; BaF3 cells, 3 days
T1 construct: expressed in transfected cells; host or cells: BaF3 (murine pro-B) cells

[2] = biological target: T2, EGFR V3 (Homo sapiens, UniProt P00533, DELINS30-297G); experiment: BaF3 cell proliferation assay (CellTiterGlo), EGFR V3; type: cell-based; settings: BaF3 cells, 3 days
T2 construct: expressed in transfected cells; host or cells: BaF3 (murine pro-B) cells, retroviral transduction with pMXs-IRES-Blasticidin
In short: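 BaF3 cells made IL-3-independent by retroviral expression of each EGFR or HER2 mutant were treated in triplicate with compound for 72 h. Viability was read by CellTiterGlo ATP luminescence and normalised to vehicle, and EC50 was fitted from dose-response curves.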

[3] = biological target: T3, EGFR V6 (Homo sapiens, UniProt P00533, DEL434-544); experiment: BaF3 cell proliferation assay (CellTiterGlo), EGFR V6; type: cell-based; settings: Table B; BaF3 cells, 3 days
T3 construct: expressed in transfected cells; host or cells: BaF3 (murine pro-B) cells, retroviral transduction with pMXs-IRES-Blasticidin
Description: (§1) Retroviral Production: EGFR mutants were subcloned into pMXs-IRES-Blasticidin (RTV-016, Cell Biolabs, San Diego, CA). Retroviral expression vector retrovirus was produced by transient transfection of HEK 293T cells with the retroviral EGFR mutant expression vector pMXs-IRES-Blasticidin (RTV-016, Cell Biolabs), pCMV-Gag-Pol vector and pCMV-VSV-G-Envelope vector. Briefly, HEK 293T/17 cells were plated in 100 mm collagen coated plate (354450, Corning Life Sciences, Tewksbury, MA) (4×10^5 per plate) and incubated overnight. The next day, retroviral plasmids (3 ng of EGFR mutant, 1.0 ng of pCMV-Gag-Pol and 0.5 ng pCMV-VSV-G) were mixed in 500 n1 of Optimem (31985, Life Technologies). […]
(§2) Assay for cell proliferation: BaF3 cell lines were resuspended at 1.3E5 c/ml in RPMI containing 10% Heat Inactivated FBS, 2% L-glutamine and 1% Pen/Strep and dispensed in triplicate (17.5E4 c/well) into 96 well plates. […] Inhibition of cell growth was determined by luminescent quantification of intracellular ATP content using CellTiterGlo (Promega), according to the protocol provided by the manufacturer. […] The number of viable cells was determined and normalized to vehicle-treated controls. Inhibition of proliferation, relative to vehicle-treated controls was expressed as a fraction of 1 and graphed using PRISM® software (Graphpad Software, San Diego, CA). EC50 values were determined with the same application.

[4] = biological target: T4, EGFR wt (Homo sapiens, UniProt P00533); experiment: BaF3 cell proliferation assay (CellTiterGlo), EGFR wt; type: cell-based; settings: BaF3 cells, 3 days
T4 construct: expressed in transfected cells; host or cells: BaF3 (murine pro-B) cells, retroviral transduction with pMXs-IRES-Blasticidin
In short: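 BaF3 cells engineered by retroviral transduction to express EGFR and selected for blasticidin resistance and IL-3 independent growth were suspended at 1.3E5 c/ml in RPMI with 10% heat inactivated FBS, 2% L-glutamine and 1% Pen/Strep. They were plated in triplicate in 96 well plates and exposed to vehicle or varying drug concentrations for 3 days. Viability was quantified by CellTiterGlo ATP luminescence, normalized to vehicle, and curves fitted in PRISM.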

[5] = biological target: T5, HER2 YVMA (Homo sapiens, UniProt P04626, INS775YVMA); experiment: BaF3 cell proliferation assay (CellTiterGlo), HER2 YVMA; type: cell-based; settings: Table A; BaF3 cells, 3 days
T5 construct: expressed in transfected cells; host or cells: BaF3 (murine pro-B) cells

[6] = biological target: T6, EGFR A289V (Homo sapiens, UniProt P00533, A289V); experiment: BaF3 cell proliferation assay (CellTiterGlo), EGFR A289V; type: cell-based; settings: Table B; BaF3 cells, 3 days
T6 construct: expressed in transfected cells; host or cells: BaF3 (murine pro-B) cells, retroviral transduction with pMXs-IRES-Blasticidin
Description: as §1, §2

[7] = biological target: T7, EGFR G598V (Homo sapiens, UniProt P00533, G598V); experiment: BaF3 cell proliferation assay (CellTiterGlo), EGFR G598V; type: cell-based; settings: Table B; BaF3 cells, 3 days
T7 construct: expressed in transfected cells; host or cells: BaF3 (murine pro-B) cells, retroviral transduction with pMXs-IRES-Blasticidin
Description: as §1, §2

[8] = biological target: T8, EGFR V2 (Homo sapiens, UniProt P00533, DEL545-627); experiment: BaF3 cell proliferation assay (CellTiterGlo), EGFR V2; type: cell-based; settings: Table B; BaF3 cells, 3 days
T8 construct: expressed in transfected cells; host or cells: BaF3 (murine pro-B) cells, retroviral transduction with pMXs-IRES-Blasticidin
Description: as §1, §2

[9] = system: GBM tumors; settings: phase 2 study, GBM patients, erlotinib in combination with radiation and temozolomide; cited from earlier work
[10] = biological target: T9, EGFR SVD (Homo sapiens, UniProt P00533, INS770SVD); experiment: BaF3 cell proliferation assay (CellTiterGlo), EGFR SVD; type: cell-based; settings: Table A; BaF3 cells, 3 days
T9 construct: expressed in transfected cells; host or cells: BaF3 (murine pro-B) cells, retroviral transduction with pMXs-IRES-Blasticidin
Description: (§3) Retroviral Production: EGFR mutants were subcloned into pMXs-IRES-Blasticidin (RTV-016, Cell Biolabs, San Diego, CA). Retroviral expression vector retrovirus was produced by transient transfection of HEK 293T cells with the retroviral EGFR mutant expression vector pMXs-IRES-Blasticidin (RTV-016, Cell Biolabs), pCMV-Gag-Pol vector and pCMV-VSV-G-Envelope vector. Briefly, HEK 293T/17 cells were plated in 100 mm collagen coated plate (354450, Corning Life Sciences, Tewksbury, MA) (4×10^5 per plate) and incubated overnight. The next day, retroviral plasmids (3 ng of EGFR mutant, 1.0 ng of pCMV-Gag-Pol and 0.5 ng pCMV-VSV-G) were mixed in 500 n1 of Optimem (31985, Life Technologies). The mixture was incubated at room temperature for 5 min and then added to Optimem containing transfection reagent Lipofectamine (11668, Invitrogen) and incubated for 20 minutes. Mixture was then added dropwise to HEK 293T cells. The next day the medium was replaced with fresh culture medium and retrovirus was harvested @ 24 and 48 hrs.
(§4) Generation of EGFR mutant stable cell lines: BaF3 cells (1.5E5 cells) were infected with 1 ml of viral supernatant supplemented with 8 ng/ml polybrene by centrifuging for 30 min at 1000 rpm. Cells were placed in a 37° C. incubator overnight. Cells were then spun for 5 minutes to pellet the cells. Supernatant was removed and cells re-infected a fresh 1 ml of viral supernatant supplemented with 8 ng/ml polybrene by centrifuging for 30 min at 1000 rpm. Cells were placed in 37° C. incubator overnight. Cells were then maintained in RPMI containing 10% Heat Inactivated FBS, 2% L-glutamine containing 10 ng/ml IL-3. After 48 hours cells were selected for retroviral infection in 10 […] for one week. Blasticidin resistant populations were washed twice in phosphate buffered saline before plating in media lacking IL-3 to select for IL-3 independent growth.
(§5) Assay for cell proliferation: BaF3 cell lines were resuspended at 1.3E5 c/ml in RPMI containing 10% Heat Inactivated FBS, 2% L-glutamine and 1% Pen/Strep and dispensed in triplicate (17.5E4 c/well) into 96 well plates. To determine the effect of drug on cell proliferation, cells incubated for 3 days in the presence of vehicle control or test drug at varying concentrations. Inhibition of cell growth was determined by luminescent quantification of intracellular ATP content using CellTiterGlo (Promega), according to the protocol provided by the manufacturer. Comparison of cell number on day 0 versus 72 hours post drug treatment was used to plot dose-response curves. The number of viable cells was determined and normalized to vehicle-treated controls. Inhibition of proliferation, relative to vehicle-treated controls was expressed as a fraction of 1 and graphed using PRISM® software (Graphpad Software, San Diego, CA). EC50 values were determined with the same application.

[11] = biological target: T10, EGFR NPH (Homo sapiens, UniProt P00533, INS773NPH); experiment: BaF3 cell proliferation assay (CellTiterGlo), EGFR NPH; type: cell-based; settings: Table A; BaF3 cells, 3 days
T10 construct: expressed in transfected cells; host or cells: BaF3 (murine pro-B) cells, retroviral transduction with pMXs-IRES-Blasticidin
Description: as §3, §4, §5

T10 sequence (P00533 with tags, fused parts or gaps INS773NPH): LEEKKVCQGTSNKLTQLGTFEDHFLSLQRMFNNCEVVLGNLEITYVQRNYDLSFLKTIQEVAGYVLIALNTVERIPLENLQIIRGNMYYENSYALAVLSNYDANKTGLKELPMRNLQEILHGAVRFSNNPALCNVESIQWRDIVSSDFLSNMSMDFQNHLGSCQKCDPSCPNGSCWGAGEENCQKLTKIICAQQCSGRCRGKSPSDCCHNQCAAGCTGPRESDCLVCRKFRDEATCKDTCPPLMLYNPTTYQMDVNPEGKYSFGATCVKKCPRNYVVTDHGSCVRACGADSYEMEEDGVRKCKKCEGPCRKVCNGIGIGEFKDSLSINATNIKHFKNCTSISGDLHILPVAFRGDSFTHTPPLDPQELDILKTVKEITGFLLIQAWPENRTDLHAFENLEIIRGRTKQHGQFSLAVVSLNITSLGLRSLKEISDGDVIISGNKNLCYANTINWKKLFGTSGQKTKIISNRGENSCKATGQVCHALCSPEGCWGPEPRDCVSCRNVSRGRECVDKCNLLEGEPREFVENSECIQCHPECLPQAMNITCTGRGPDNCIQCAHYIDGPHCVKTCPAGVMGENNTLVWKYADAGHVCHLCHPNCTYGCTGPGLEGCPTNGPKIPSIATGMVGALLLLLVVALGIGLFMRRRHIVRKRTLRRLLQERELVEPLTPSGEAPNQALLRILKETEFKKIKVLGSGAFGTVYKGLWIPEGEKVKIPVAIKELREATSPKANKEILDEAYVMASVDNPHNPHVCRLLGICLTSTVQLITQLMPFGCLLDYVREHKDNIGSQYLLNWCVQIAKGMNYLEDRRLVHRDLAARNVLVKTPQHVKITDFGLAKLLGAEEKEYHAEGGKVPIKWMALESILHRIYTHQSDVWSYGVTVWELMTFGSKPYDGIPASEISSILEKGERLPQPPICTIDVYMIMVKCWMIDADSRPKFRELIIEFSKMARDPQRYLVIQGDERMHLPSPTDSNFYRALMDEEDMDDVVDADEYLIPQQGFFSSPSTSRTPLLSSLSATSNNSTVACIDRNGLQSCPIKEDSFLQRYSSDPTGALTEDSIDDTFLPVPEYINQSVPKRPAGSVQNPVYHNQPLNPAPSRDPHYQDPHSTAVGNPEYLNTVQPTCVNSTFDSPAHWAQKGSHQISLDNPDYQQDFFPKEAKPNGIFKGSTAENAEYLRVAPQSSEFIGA
T1 sequence (P04626 23-1255 S310F): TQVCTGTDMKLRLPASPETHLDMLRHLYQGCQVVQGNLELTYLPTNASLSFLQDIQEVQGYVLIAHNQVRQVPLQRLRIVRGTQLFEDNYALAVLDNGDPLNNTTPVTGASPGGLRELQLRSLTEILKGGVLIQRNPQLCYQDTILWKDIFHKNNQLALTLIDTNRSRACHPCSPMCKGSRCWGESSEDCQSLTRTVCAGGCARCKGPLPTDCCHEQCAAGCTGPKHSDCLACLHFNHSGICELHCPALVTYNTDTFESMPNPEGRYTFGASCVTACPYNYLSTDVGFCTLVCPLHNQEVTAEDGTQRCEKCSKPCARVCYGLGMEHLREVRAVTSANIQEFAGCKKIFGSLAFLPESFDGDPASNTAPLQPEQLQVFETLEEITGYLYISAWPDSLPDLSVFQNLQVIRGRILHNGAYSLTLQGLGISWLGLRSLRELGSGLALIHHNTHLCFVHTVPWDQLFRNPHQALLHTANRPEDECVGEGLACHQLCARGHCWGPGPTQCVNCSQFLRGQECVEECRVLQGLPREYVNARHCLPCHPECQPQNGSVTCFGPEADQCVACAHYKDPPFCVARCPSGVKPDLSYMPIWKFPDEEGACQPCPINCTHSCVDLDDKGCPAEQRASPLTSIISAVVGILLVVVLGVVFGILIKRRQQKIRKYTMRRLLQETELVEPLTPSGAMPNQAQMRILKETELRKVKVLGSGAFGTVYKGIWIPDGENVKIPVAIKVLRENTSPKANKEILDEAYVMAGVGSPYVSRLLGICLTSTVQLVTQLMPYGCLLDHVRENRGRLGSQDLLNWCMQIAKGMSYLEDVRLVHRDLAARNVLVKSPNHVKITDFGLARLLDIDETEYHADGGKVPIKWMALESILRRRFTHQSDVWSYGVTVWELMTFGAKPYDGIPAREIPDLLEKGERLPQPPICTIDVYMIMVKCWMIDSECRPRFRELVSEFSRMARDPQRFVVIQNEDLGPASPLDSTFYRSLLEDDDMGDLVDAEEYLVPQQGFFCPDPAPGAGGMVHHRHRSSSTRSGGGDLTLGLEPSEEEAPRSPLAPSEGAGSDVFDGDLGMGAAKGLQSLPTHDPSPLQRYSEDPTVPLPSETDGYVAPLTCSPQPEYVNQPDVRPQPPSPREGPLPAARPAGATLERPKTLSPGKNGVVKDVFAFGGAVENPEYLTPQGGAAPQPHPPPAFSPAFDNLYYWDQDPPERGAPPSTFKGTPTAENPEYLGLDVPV
T5 sequence (P04626 with tags, fused parts or gaps INS775YVMA): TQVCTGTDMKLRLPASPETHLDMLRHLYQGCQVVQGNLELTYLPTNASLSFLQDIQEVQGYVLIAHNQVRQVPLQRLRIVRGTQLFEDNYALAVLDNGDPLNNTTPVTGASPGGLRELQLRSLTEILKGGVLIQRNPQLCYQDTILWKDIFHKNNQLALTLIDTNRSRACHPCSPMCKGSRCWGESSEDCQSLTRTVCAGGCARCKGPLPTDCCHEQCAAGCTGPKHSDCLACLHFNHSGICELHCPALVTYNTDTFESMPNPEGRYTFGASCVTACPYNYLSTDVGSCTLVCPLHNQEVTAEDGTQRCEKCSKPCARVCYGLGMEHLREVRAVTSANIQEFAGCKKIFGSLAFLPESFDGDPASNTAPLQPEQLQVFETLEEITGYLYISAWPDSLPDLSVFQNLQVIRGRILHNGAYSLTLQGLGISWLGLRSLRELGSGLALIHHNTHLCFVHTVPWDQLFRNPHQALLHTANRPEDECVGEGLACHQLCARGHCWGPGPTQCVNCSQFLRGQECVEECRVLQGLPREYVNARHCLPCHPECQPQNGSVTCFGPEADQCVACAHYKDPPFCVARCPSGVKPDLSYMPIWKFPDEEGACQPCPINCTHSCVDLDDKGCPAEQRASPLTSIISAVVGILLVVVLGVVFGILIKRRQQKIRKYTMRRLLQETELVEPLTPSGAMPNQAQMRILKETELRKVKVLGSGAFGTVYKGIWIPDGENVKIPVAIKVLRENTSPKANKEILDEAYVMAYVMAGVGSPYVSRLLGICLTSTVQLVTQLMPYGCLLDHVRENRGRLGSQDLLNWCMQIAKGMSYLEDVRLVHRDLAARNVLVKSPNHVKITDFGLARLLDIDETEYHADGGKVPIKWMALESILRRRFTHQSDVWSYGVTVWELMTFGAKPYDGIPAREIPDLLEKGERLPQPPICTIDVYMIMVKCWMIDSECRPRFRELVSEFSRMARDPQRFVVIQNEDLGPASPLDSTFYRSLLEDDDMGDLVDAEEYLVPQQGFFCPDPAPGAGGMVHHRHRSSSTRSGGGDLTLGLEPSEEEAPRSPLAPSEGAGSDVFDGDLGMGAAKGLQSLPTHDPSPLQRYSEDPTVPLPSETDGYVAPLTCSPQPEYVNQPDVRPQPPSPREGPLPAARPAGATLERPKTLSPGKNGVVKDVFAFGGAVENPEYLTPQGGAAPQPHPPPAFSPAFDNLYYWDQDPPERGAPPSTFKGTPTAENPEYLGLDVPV
T4 sequence (P00533 25-1210): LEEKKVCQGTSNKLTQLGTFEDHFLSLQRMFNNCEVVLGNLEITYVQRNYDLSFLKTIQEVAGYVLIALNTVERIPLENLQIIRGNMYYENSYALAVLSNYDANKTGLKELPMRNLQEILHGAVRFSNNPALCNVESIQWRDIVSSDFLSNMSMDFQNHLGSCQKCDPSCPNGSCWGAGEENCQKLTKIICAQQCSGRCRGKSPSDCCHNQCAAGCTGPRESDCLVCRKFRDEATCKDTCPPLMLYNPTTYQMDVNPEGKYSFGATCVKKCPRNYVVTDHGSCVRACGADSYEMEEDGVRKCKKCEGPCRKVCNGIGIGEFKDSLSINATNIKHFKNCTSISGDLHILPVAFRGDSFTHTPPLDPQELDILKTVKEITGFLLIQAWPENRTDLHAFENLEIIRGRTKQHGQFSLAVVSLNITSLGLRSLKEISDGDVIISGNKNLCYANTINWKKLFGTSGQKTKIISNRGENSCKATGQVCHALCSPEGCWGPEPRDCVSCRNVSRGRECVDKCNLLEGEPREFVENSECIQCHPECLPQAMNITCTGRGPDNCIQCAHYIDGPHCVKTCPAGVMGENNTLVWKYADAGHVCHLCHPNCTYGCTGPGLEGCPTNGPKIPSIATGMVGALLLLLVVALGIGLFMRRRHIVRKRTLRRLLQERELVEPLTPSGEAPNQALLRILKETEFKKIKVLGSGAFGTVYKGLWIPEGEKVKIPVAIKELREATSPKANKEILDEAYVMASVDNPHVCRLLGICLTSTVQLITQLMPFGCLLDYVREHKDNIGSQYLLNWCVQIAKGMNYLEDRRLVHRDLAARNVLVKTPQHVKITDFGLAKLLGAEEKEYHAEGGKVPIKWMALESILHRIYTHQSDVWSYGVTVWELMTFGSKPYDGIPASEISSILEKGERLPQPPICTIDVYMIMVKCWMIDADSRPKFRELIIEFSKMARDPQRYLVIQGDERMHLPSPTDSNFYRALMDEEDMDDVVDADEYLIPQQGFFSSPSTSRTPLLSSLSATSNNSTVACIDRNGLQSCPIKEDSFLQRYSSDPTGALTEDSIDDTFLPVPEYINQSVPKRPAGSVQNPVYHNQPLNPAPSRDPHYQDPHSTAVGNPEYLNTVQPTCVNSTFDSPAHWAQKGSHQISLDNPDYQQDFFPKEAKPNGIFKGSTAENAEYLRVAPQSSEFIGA

Compound	IC50 [1]	IC50 ([2]; Table A)	IC50 ([2]; Table B)	IC50 [3]	IC50 ([4]; Table A)	IC50 ([4]; Table B)	IC50 [5]	IC50 [6]	IC50 [7]	IC50 [8]	median OS (mOS) [9]	median PFS (mPFS) [9]	IC50 [10]	IC50 [11]
CN1C[C@H]2C[C@@]2(C#Cc2cc3ncnc(Nc4cccc(Cl)c4F)c3cc2NC(=O)/C=C/CN2CCOCC2)C1 [Compound 37, (E)-N-(4-((3-chloro-2-fluorophenyl)amino)-7-(((1R,5S)-3-methyl-3-azabicyclo[3.1.0]hexan-1-yl)ethynyl)quinazolin-6-yl)-4-morpholinobut-2-enamide]	100 to 500 nM	≤ 50 nM	10 to 25 nM	≤ 10 nM	≤ 50 nM	25 to 50 nM	100 to 500 nM	≤ 10 nM	≤ 10 nM	≤ 10 nM				
C#Cc1cccc(Nc2ncnc3cc(OCCOC)c(OCCOC)cc23)c1 [erlotinib]											8.6 months	2.8 months		
C=CC(=O)Nc1cc2c(Nc3cccc(Cl)c3F)ncnc2cc1C#C[C@@]1(C)CCN(C)C1 [Compound 2, (R)—N-(4-((3-chloro-2-fluorophenyl)amino)-7-((1,3-dimethylpyrrolidin-3-yl)ethynyl)quinazolin-6-yl)acrylamide]	50 to 100 nM	≤ 50 nM			100 to 500 nM		100 to 500 nM						100 to 500 nM	50 to 100 nM
C=CC(=O)Nc1cc2c(Nc3ccc(OCc4ccccn4)c(Cl)c3)ncnc2cc1C#CC1(C)CCN(C)C1 (stereo not drawn) [Compound 12, N-(4-((3-chloro-4-(pyridin-2-ylmethoxy)phenyl)amino)-7-((1,3-dimethylpyrrolidin-3-yl)ethynyl)quinazolin-6-yl)acrylamide]	≤ 50 nM	≤ 50 nM			> 500 nM		≤ 50 nM						≤ 50 nM	≤ 50 nM
C=CC(=O)Nc1cc2c(Nc3cccc(Cl)c3F)ncnc2cc1C#C[C@]1(C)CCN(C)C1 [Compound 3, (S)—N-(4-((3-chloro-2-fluorophenyl)amino)-7-((1,3-dimethylpyrrolidin-3-yl)ethynyl)quinazolin-6-yl)acrylamide]	50 to 100 nM	≤ 50 nM			50 to 100 nM		100 to 500 nM						100 to 500 nM	50 to 100 nM
